The NIST ThermoML archive (doi:10.1016/j.fluid.2018.01.015)
Numbers after ± are expanded uncertainties.

How the values were obtained:
[1] = Molar enthalpy of transition or fusion; details: Crystal; DSC
[2] = Crystal; DTA

For Cc1cc(C)c(C(=O)P(=O)(c2ccccc2)c2ccccc2)c(C)c1 [(2,4,6-trimethylbenzoyl) diphenylphosphine oxide], the “Molar enthalpy of transition or fusion” value [1] was 6.03 ± 0.172 kcal/mol and the Normal melting temperature [2] was 92.66 ± 0.39 °C.
